Target: D(3) dopamine receptor (Homo sapiens, UniProt P35462)
Test: Ability to displace [125I]-sulpiride from human Dopamine receptor D3, expressed in CHO cells

D(3) dopamine receptor, sequence (P35462 as listed by the source): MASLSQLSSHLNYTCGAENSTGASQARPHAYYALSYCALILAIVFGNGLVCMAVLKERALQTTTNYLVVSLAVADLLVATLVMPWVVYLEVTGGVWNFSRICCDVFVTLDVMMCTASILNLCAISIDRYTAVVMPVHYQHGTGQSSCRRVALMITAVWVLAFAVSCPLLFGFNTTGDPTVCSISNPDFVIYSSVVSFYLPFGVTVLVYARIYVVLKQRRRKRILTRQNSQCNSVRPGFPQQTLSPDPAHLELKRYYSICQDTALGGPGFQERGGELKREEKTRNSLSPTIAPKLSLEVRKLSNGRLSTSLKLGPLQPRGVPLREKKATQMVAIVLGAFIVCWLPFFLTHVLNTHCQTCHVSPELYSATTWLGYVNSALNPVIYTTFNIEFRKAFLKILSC

Ki: 1.3 nM
SMILES: CCS(=O)(=O)c1ccc(OC)c(-c2ccc(CN3CCCCCC3c3ccccc3)[nH]2)c1 (stereo unspecified)

Reference: BindingDB's records for doi:10.7270/Q26112HR (n/a, 1997)
